Data from US20070054887A1, “Methods for treating bladder dysfunction” (BioXell S.p.A, priority 2003, published 2007).

How the values were obtained:
hBC = test: androgen-stimulated hBC growth, 48 h incubation; assay type: cell-based, human; conditions: DHT 10 nM, Compound A 1 nM, finasteride 1 nM, FIG. 5
Excerpt: Results are expressed as percentage variation (mean±SEM) over their relative controls and derived from at least three different experiments obtained from three distinct hBC cell preparations. *P<0.05 (vs. control); °P<0.01 (vs. androgen-treated cells).

human bladder cells = test: inhibition of basal human bladder cell growth; assay type: cell-based; conditions: Homo sapiens
vimentin = vimentin gene and protein expression in serum-starved hBC; assay type: cell-based, human; conditions: 10 nM, at any time point tested; FIG. 13
Description: Vimentin was detected (mRNA and protein) as per the method for desmin described in Example 1B. Vimentin is a fibroblastic cell marker. Quantitative analysis using real-time RT-PCR of vimentin mRNA expression in serum-starved hBC treated with Compound A (10 nM) was examined at different time points (2-12 days). Results are derived from five different experiments from three distinct hBC preparations and are expressed as fold increase compared to time zero. Control, open columns; Compound A, grey columns.
Western blot detection of vimentin in hBC was performed as follows: Thirty ug of proteins were separated by 10% SDS-PAGE, transferred onto nitrocellulose membrane, and probed with anti-vimentin antibody (1:1000). A band of about 61 kDa was detected in each sample of hBC. […] Results are representative of three independent experiments performed using separate hBC preparations.
Immunocytochemical detection of vimentin in hBC was conducted as follows: Cells were seeded onto sterile glasses, treated with Compound A (10 nM) and processed at the indicated time points with an anti-vimentin antibody (1:1000). […] Quantification of three separate experiments from three distinct preparations of hBC is shown in FIG. 15 (control, open columns; Compound A, grey columns). […]

bcl-2 = test: Bcl-2 protein expression in hBC by immunocytochemistry; assay type: cell-based, human; conditions: Compound A 10 nM, alone and in the presence of KGF (10 ng/ml) or testosterone (10 nM); FIG. 6
Description: After incubation with the indicated stimuli, slides were washed twice with PBS pH 7.4 and fixed in 3.7% paraformaldehyde in PBS for 15 min at room temperature, followed by permeabilization in 3.7% paraformaldehyde in PBS, containing 0.1% Triton X-100 for 15 min at room temperature. Anti-Bcl-2 mAb (1:40) diluted in PBS containing 2% BSA was added to the slides and incubated overnight at 4° C. Slides were washed three times (5 min) in PBS and incubated 45 min at room temperature with 2% BSA-PBS, containing the secondary antibody (dilution 1:1000). After three washes in PBS, the slides were examined with a phase contrast microscope (Nikon mocrophot-FX microscopes; Nikon, Kogaku, Tokyo, Japan). Slides lacking the primary antibody or stained with the corresponding non-immune serum served as controls.

C=C1/C(=C\C=C2/CCC[C@]3(C)C([C@@H](C)C/C=C/C(O)(CC)CC)=CC[C@@H]23)C[C@@H](O)C[C@@H]1F [Compound A, 1-alpha-fluoro-25-hydroxy-16,23E-diene-26,27-bishomo-20-epi-cholecalciferol]
hBC proliferation stimulated by the androgen DHT (hBC): inhibits | IC50 (human bladder cells): 6.31 pM | vimentin protein expression (Western blot) (vimentin): failed to affect | bcl-2 expression (percentage of bcl-2 stained cells) (bcl-2): significantly inhibits
